Data published in patent US20100112089A1, “PEPTIDE COMPOUND AND USE THEREOF” (Takeda Pharmaceutical Company Limited, priority 2008, published 2010).
Where a name gives a salt, the structure may show the parent alone. Square brackets hold non-standard residues; d marks the D form. Peptide text beside a SMILES is read from it. dPhe(F5) = N[C@H](Cc1c(F)c(F)c(F)c(F)c1F)C(=O)O; dBpa = N[C@H](Cc1ccc(C(=O)c2ccccc2)cc1)C(=O)O; dCha = N[C@H](CC1CCCCC1)C(=O)O

Test system: patients with locally advanced or metastatic solid tumors
Assay: Phase I single agent study of CBP501 (Study A): MTD, DLT, safety, antitumor activity
Type: in vivo, human
Excerpt: PK was examined in cycle (cy) 1. MTD is the level below that where 2 of 3-6 patients (pts) have DLT during cy 1-2.
A minimum of 3 patients were to be enrolled at each dose level, and 6 in the event of DLT.
(1) Neutropenia Gr 4 lasting 7 days (5 days in combination study) or Gr 3-4 neutropenia with fever and/or infection, (2) Thrombocytopenia Gr 4 (or grade 3 with bleeding), (3) Treatment-related non-hematological toxicity Gr 3 or 4 (excluding Gr 3 vomiting or diarrhea with sub-optimal prophylactic and curative treatment), and (4) Dosing delay greater than 2 weeks or treatment discontinuation due to treatment-emergent adverse events or related severe laboratory abnormalities.
The MTD was defined as the dose level below that in which DLT was observed during the first 2 cycles in at least 2 out of the 3-6 patients assessable for determination of MTD. The MTD was to be the RD for future studies. Patients evaluable for MTD were those who completed 2 treatment cycles or experienced DLT during the first 2 cycles.
(1) Echocardiogram or MUGA scan (baseline and every 2 cycles), (2) Cardiac enzymes (CPK-MB, CPK-MM, troponin; baseline and prior to each administration), and (3) ECG (before infusion, end of infusion, and 1 hr after infusion end).
(1) Pathologically-confirmed, locally advanced or metastatic solid tumors, refractory to standard therapy or for which conventional therapy is not reliably effective, (2) Presence of measurable disease according to RECIST criteria was not required, but was recommended in additional patients entered at MTD, (3) Age ≧18 years; Eastern Cooperative Oncology Group (ECOG) PS 0-2; Life expectancy >3 months, (4) Adequate organ function (hematological, hepatic, renal, metabolic), and (5) Signed informed consent

[1] = cardiac monitoring, both studies
[2] = single agent, 9.5 mg/m^2, 3 pts
[3] = single agent, 16.9 mg/m^2, 3 pts
[4] = single agent, 22.5 mg/m^2, 7 pts

N=C(N)NCCC[C@@H](NC(=O)[C@@H](CCCNC(=N)N)NC(=O)[C@@H](CCC(N)=O)NC(=O)[C@@H](CCCNC(=N)N)NC(=O)[C@@H](CCCNC(=N)N)NC(=O)[C@@H](CCCNC(=N)N)NC(=O)[C@@H](CC1CCCCC1)NC(=O)[C@@H](Cc1c(F)c(F)c(F)c(F)c1F)NC(=O)[C@@H](CO)NC(=O)[C@@H](Cc1c[nH]c2ccccc12)NC(=O)[C@@H](CO)NC(=O)[C@H](N)Cc1ccc(C(=O)c2ccccc2)cc1)C(=O)O [CBP501, H-(D)p-Benzoylphenylalanyl-(D)seryl-(D)tryptophyl-(D)seryl-(D)pentafluorophenylalanyl-(D)cyclohexylalanyl-(D)arginyl-(D)arginyl-(D)arginyl-(D)glutaminyl-(D)arginyl-(D)arginine acetate salt] (H-[dBpa][dS][dW][dS][dPhe(F5)][dCha][dR][dR][dR][dQ][dR][dR]-OH)
QTc > 500 ms (patients) (Single agent (16 pts), centralized ECG review): 0 | Abdominal pain Gr 1-2 (Single-agent (n = 30)): 7 | Abdominal pain Gr 3 (Single-agent (n = 30)): 2 | Allergy (includes infusion reaction, flushing, rash, etc.) Gr 1-2 (Single-agent (n = 30)): 18 | Diarrhea Gr 1-2 (Single-agent (n = 30)): 5 | Diarrhea Gr 3 (Single-agent (n = 30)): 1 | Fatigue Gr 1-2 (Single-agent (n = 30)): 14 | Fatigue Gr 3 (Single-agent (n = 30)): 1 | Headache Gr 1-2 (Single-agent (n = 30)): 3 | Increased troponin Gr 3 (Single-agent (n = 30)): 1 | Nausea/Vomiting Gr 1-2 (Single-agent (n = 30)): 5 | Neutropenia Gr 1-2 (Single-agent (n = 30)): 3 | QTc prolongation Gr 1-2 (Single-agent (n = 30)): 10 | Thrombocytopenia Gr 1-2 (Single-agent (n = 30)): 4 | Anemia Gr 1-2 (Single-agent (n = 30), 16 with baseline anemia): 22 (16*) | patients with QTc prolongation by >60 msec (both studies, centralized ECG review (16 + 24 patients)): 4 | start of allergic reaction into the infusion (both studies, rash, hot flushes, urticaria): 10 to 60 min | pts with QTcB >500 msec [1]: 1 | pts with QTcB prolongation >60 msec [1]: 2 | time for troponin to return to normal levels (patient at DL 8, single-agent, Gr 3 troponin elevation): within one week | tolerability (single agent): well tolerated | Patients with allergic reaction Gr1 (single agent, 0.9 mg/m^2, 4 pts): 1 | Patients with allergic reaction Gr2 (single agent, 7.2 mg/m^2, 3 pts): 3 | Patients with allergic reaction Gr1 [2]: 1 | Patients with allergic reaction Gr2 [2]: 2 | Patients with allergic reaction Gr1 [3]: 1 | Patients with allergic reaction Gr2 [3]: 1 | Patients with allergic reaction Gr1 [4]: 3 | Patients with allergic reaction Gr2 [4]: 4 | pts with Gr 1-2 allergy (single agent, 30 pts treated (43%), interim summary): 13 | Patients with allergic reaction Gr1 (single agent, TOTAL, 30 pts): 7 | Patients with allergic reaction Gr2 (single agent, TOTAL, 30 pts): 11 | MTD (single agent, doses up to 22.5 mg/m^2): not reached | DLT (single-agent, dose 22.5 mg/m^2, 7 pts, 11 cycles): 1
